The values below come from patent US20230302150A1, “ANTIBODY-TLR AGONIST CONJUGATES, METHODS AND USES THEREOF” (Ambrx, Inc., priority 2020, published 2023).

pEC50: −log10 of the molar value.

For the assay, the target named is T1, hTLR7 (Homo sapiens, UniProt Q9NYK1).
T1 construct: expressed in transfected cells; host or cells: HEK-Blue hTLR7 reporter cell line
T1 sequence (Q9NYK1 27-1049): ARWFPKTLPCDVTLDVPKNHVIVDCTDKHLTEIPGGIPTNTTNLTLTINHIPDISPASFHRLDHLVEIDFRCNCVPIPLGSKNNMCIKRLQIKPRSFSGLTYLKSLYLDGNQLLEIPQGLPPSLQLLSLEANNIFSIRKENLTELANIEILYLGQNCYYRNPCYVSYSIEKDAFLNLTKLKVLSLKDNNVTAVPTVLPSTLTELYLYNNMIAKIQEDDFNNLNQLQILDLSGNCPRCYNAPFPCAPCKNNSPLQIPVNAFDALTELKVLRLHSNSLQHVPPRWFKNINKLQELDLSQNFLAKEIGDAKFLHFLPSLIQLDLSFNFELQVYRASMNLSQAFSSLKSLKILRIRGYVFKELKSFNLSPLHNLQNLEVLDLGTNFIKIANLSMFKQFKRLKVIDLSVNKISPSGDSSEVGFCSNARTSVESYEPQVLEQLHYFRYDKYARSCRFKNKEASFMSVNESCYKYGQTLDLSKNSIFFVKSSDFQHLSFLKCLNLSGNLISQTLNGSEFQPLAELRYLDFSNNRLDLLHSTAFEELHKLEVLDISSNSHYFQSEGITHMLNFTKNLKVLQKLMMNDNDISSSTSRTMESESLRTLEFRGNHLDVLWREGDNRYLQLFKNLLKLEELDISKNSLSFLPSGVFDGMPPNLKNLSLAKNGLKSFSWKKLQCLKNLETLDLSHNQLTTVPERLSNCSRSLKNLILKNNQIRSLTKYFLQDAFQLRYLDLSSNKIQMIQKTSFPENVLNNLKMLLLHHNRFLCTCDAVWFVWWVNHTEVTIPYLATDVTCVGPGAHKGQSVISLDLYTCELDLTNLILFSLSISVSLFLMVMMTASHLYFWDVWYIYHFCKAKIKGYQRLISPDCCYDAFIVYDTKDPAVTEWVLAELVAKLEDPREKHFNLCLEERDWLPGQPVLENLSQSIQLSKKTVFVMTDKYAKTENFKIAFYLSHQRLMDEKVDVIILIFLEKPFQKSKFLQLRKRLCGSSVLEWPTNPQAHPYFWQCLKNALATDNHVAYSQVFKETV
In words: HEK-Blue hTLR7 reporter assay (NF-kB-induced SEAP, Quanti-Blue). The class given is cell-based. The conditions noted are these: Table 19, TLR7, drug-linkers with PEG shielding; read-out: EC50. As to the method: HEK-Blue™ hTLR7 cells were incubated in HEK-Blue™ Detection medium and stimulated with increasing concentrations of TLR7 or TLR8 or TLR7/8 agonists. […] The EC50 was determined from dose-response curve using Prism Software.
As for `CCCCOc1nc(N)c2[nH]c(=O)n(Cc3ccc(CN4CCC(CCNC(=O)[C@H](Cc5ccc(O[C@@H]6O[C@H](CO)[C@@H](O)[C@H](O)[C@H]6O)cc5)NC(=O)CON)CC4)cc3)c2n1` [AXC-956, (S)—N-(2-(1-(4-((6-amino-2-butoxy-8-oxo-7,8-dihydro-9H-purin-9-yl)methyl)benzyl)piperidin-4-yl)ethyl)-2-(2-(aminooxy)acetamido)-3-(4-(((2S,3R,4S,5S,6R)-3,4,5-trihydroxy-6-(hydroxymethyl)tetrahydro-2H-pyran-2-yl)oxy)phenyl)propanamide], the pEC50 is 6.80. For the compound `CCCCOc1nc(N)c2[nH]c(=O)n(Cc3ccc(CN4CCC(CCNC(=O)[C@@H](CCCCN)NC(=O)CON)CC4)cc3)c2n1` [AXC-958, (R)-6-amino-N-(2-(1-(4-((6-amino-2-butoxy-8-oxo-7,8-dihydro-9H-purin-9-yl)methyl)benzyl)piperidin-4-yl)ethyl)-2-(2-(aminooxy)acetamido)hexanamide], the negative-log EC50 (pEC50) was 7.40.

As for `CCCCOc1nc(N)c2[nH]c(=O)n(Cc3ccc(CN4CCC(CCNC(=O)[C@@H](CCCCNC(=O)CCOCCOCCOCCOCCOCCOCCOCCOCCOCCOCCOCCOCCOCCOCCOCCOCCOCCOCCOCCOCCOCCOCCOCCOC)NC(=O)CON)CC4)cc3)c2n1` [AXC-959, (R)—N-(2-(1-(4-((6-amino-2-butoxy-8-oxo-7,8-dihydro-9H-purin-9-yl)methyl)benzyl)piperidin-4-yl)ethyl)-2-(2-(aminooxy)acetamido)-6-PEG24-amidohexanamide], the pEC50 is 6.26.

Take `CCCCOc1nc(N)c2[nH]c(=O)n(Cc3ccc(CN4CCC(CCNC(=O)[C@H](Cc5ccc(OP(=O)(O)O)cc5)NC(=O)CON)CC4)cc3)c2n1` [AXC-960, (S)-4-(3-((2-(1-(4-((6-amino-2-butoxy-8-oxo-7,8-dihydro-9H-purin-9-yl)methyl)benzyl)piperidin-4-yl)ethyl)amino)-2-(2-(aminooxy)acetamido)-3-oxopropyl)phenyl dihydrogen phosphate]: the pEC50 was 6.57. In the case of `CCCCOc1nc(N)c2[nH]c(=O)n(Cc3ccc(CN4CCC(CCNC(=O)[C@@H](CCCCNC(=O)CCCC(=O)NCCOCCOCCOCCOCCC(=O)NC(COCCC(=O)NCCOCCOCCOCCOCCOCCOCCOCCOC)(COCCC(=O)NCCOCCOCCOCCOCCOCCOCCOCCOC)COCCC(=O)NCCOCCOCCOCCOCCOCCOCCOCCOC)NC(=O)CON)CC4)cc3)c2n1` [AXC-961, (R)-N1-(6-((2-(1-(4-((6-amino-2-butoxy-8-oxo-7,8-dihydro-9H-purin-9-yl)methyl)benzyl)piperidin-4-yl)ethyl)amino)-5-(2-(aminooxy)acetamido)-6-oxohexyl)-N5-(dPEG4)-(mPEG8)3-glutaramide], the negative-log EC50 (pEC50) is 6.07. `CCCCOc1nc(N)c2[nH]c(=O)n(Cc3ccc(CN4CCC(CCNC(=O)[C@@H](CCCCNC(=O)CCOCCOCCOCCOCCOCCOCCOCCOC)NC(=O)CON)CC4)cc3)c2n1` [AXC-962, (R)—N-(2-(1-(4-((6-amino-2-butoxy-8-oxo-7,8-dihydro-9H-purin-9-yl)methyl)benzyl)piperidin-4-yl)ethyl)-2-(2-(aminooxy)acetamido)-6-(PEG8)amidohexanamide]: the pEC50 is 6.34. For the compound `CCCCCC(=O)Nc1nc(OCCCC)nc2c1[nH]c(=O)n2Cc1ccc(CN2CCC(CCN)CC2)cc1` [AXC-963, N-(9-(4-((4-(2-aminoethyl)piperidin-1-yl)methyl)benzyl)-2-butoxy-8-oxo-8,9-dihydro-7H-purin-6-yl)hexanamide], the negative-log EC50 (pEC50) is 7.71. As for `CCCCOc1nc(NC(C)=O)c2[nH]c(=O)n(Cc3ccc(CN4CCC(CCN)CC4)cc3)c2n1` [AXC-964, N-(9-(4-((4-(2-aminoethyl)piperidin-1-yl)methyl)benzyl)-2-butoxy-8-oxo-8,9-dihydro-7H-purin-6-yl)acetamide], the figure is 7.99; as for `CCCCCC(=O)Nc1nc(OCCCC)nc2c1[nH]c(=O)n2Cc1ccc(CN2CCC(CCNC(=O)CON)CC2)cc1` [AXC-965, N-(9-(4-((4-(2-(2-(aminooxy)acetamido)ethyl)piperidin-1-yl)methyl)benzyl)-2-butoxy-8-oxo-8,9-dihydro-7H-purin-6-yl)hexanamide], 7.32.
